Test results published in the NIST ThermoML archive (doi:10.1021/acs.jced.6b00142).
Where “and” joins values, the source holds several entries; their conditions need not be identical. Equal entries are not always repeated.

Settings: Liquid, Diaphragm manometer

Cl[SiH2]Cl [dichlorosilane]
Settings | vapor or sublimation pressure
299.99 K | 214.5 kPa [middle of 4 runs]
300 K | 216.5 kPa and 212.1 kPa and 214.2 kPa
309.99 K | 284.3 kPa
319.98 K | 377.6 kPa
319.99 K | 377.9 kPa
320 K | 380.4 kPa and 381.43 kPa and 377.3 kPa
323.01 K | 407.8 kPa
329.99 K | 485.8 kPa
330.02 K | 492.2 kPa
339.99 K | 626.4 kPa [middle of 4 runs]
340 K | 628.6 kPa
343.01 K | 672.6 kPa
349.99 K | 784.7 kPa and 786.4 kPa and 789 kPa
350 K | 785 kPa
359.98 K | 981.9 kPa
359.99 K | 985.9 kPa [middle of 4 runs]
362.99 K | 1052.1 kPa
369.98 K | 1205 kPa
369.99 K | 1205 kPa and 1209 kPa
379.99 K | 1477 kPa [middle of 5 runs]
389.99 K | 1779 kPa and 1784 kPa and 1780.5 kPa
399.99 K | 2099 kPa and 2138 kPa
409.98 K | 2559 kPa
410 K | 2534 kPa
419.99 K | 3016 kPa

Cl[Si](Cl)(Cl)Cl [silicon tetrachloride]
Settings | vapor or sublimation pressure
332.99 K | 113.02 kPa
340 K | 139.15 kPa and 138.98 kPa
350.01 K | 185.05 kPa
360 K | 241.64 kPa
370 K | 311.49 kPa
380 K | 395.69 kPa
390 K | 495.9 kPa
400 K | 614 kPa

Cl[SiH](Cl)Cl [trichlorosilane]
Settings | vapor or sublimation pressure [kPa]
310 K | 121.89
320 K | 167.53
330 K | 225.35
340 K | 297.4
350 K | 385.6
360 K | 492.1
370 K | 619.6
380 K | 770.2
380.5 K | 778.2
385 K | 854.6
390 K | 946
395 K | 1044.2
